Measured values taken from patent US20260048051A1, “TREATMENT OF INFLAMMATORY BOWEL DISEASE” (Atomwise Inc., priority 2024, published 2026).
Read-outs that look alike come from different tables or passages of the source.

Assays:
IL-6 induced pSTAT3 = IL-6 induced pSTAT3 assay in TF-1 cells; format: cell-based; conditions: Homo sapiens, read-out: Cellular selectivity (IL-6/pSTAT3)
Experimental: The following example describes the IL-6 induced pSTAT3 assay used to determine the cellular selectivity (IL-6/pSTAT3) of the TYK2 inhibitors.
TF-1 (ATCC®, CRL-2003™) cells were cultured in RPMI 1640 Medium, with GlutaMAX™ Supplement, HEPES for Cell Culture (Life Technologies, 72400047), 10% Fetal Bovine Serum (Life Technologies, 26400044), 2 ng/mL human recombinant GM-CSF (Life Technologies, PHC2013), 1 mM Sodium pyruvate (Life Technologies, 11360039), 1% MEM NEAA (Life Technologies, 11140-035), 1% Penicillin/Streptomycin (Life Technologies, 15140-122).
TF-1 (70×10^6) cells were starved overnight in T150 flasks (Opti-MEM™ I Reduced Serum Medium, no phenol red (Life Technologies, 11058-021), 1 mM Na pyruvate (Life Technologies, 11360039), 1% MEM NEAA (Life Technologies, 11140-035), and 1% Penicillin/Streptomycin (Life Technologies, 15140-122)) then seeded into 96-well TPP plates (150 000 cell/well) and incubated with test compounds (Final Concentration [nM]10000-0.05) for 30 minutes at 37° C. […] Stimulation was terminated by addition of lysis buffer (MSD K150SVD) and pSTAT3 detection was measured with Phospho-STAT3 (Tyr705) Kit MSD K150SVD)) according to manufacturer's instruction. Briefly, cell lysates were added to pre-blocked plates, sealed, and shake for 1 hour at room temperature. Plates were then washed and incubated with detection antibody for 1 hour at room temperature. After washing, Read Buffer was added, and plates were read on MSD instrument (Model 1300 MSD Quickplex SQ120).

IFNα/pSTAT5 = assay: Whole blood potency (IFNα/pSTAT5), human; format: cell-based; conditions: CD4+ T cells, read-out: Cellular Whole Blood Potency IC50 (IFNα/pSTAT5), Human
Experimental: Heparinized human whole blood (5 different donors) was acquired from the Stanford Blood Center and used fresh for each experiment. Whole blood was plated (90 μl per well) into a 96-well assay plate immediately prior to initiation of the assay.
Test compounds were diluted serially (3-fold) in DMSO to generate a series of 10 concentrations (at 200× final assay concentrations). […] DMSO dilutions were diluted 10-fold in PBS to generate 20× final assay concentrations.
Pre-incubation of compounds and whole blood was initiated by adding 5 μl of the compound dilutions to the assay plates and incubated for 30 min at 37° C. Blood was then stimulated by the addition of IFN-α (5 μl of 200 ng/ml) (Miltenyi #130-093-873) followed by incubation at 37° C. for 15 min. Assays were terminated by the addition of Lyse/Fix (BD Biosciences #558049) (60 μl treated blood+1 ml Lyse/Fix) and incubated for 10 min. Cells were diluted 1:1 with Wash Buffer (PBS+0.3% BSA) and centrifuged to pellet white blood cells. Fixed cells were washed once with Wash Buffer and the pelleted cell plate was frozen at −80° C.
Cells were thawed and washed once with Wash Buffer prior to the addition of the α-CD3-Blue520 antibody (2 μg/ml final concentration; Biolegend #300481) and incubated for 30 min. Cells were washed twice in Wash Buffer followed by permeabilization in 100% cold methanol for 15 min. Cells were washed three times in Wash Buffer prior to the addition of the α-CD4-APC antibody ([…] final concentration; Biolegend #300514) and the α-pSTAT5-PE antibody (0.67 μg/ml final concentration; Biolegend #936904) and incubated for 90 min. Cells were washed twice in Wash Buffer and resuspended in 90 μl Wash Buffer prior to running on a LSRII flow cytometer (BD Biosciences, San Jose, CA). Total T cells (CD3+) and CD4+ cells were gated, and the Mean Fluorescence Intensity (MFI) was determined from the PE channel to quantify pSTAT5 signal.
The pSTAT5 MFI in the CD4+ gate was used to calculated Activity (% Control):
Data were then analyzed by non-linear regression to determine inhibitory potencies […] using the following equation in Collaborative Drug Discovery (Burlingame, CA): […]
where X: log concentration in Molar; Y: Activity (% Control); Top: curve top plateau; Bottom: curve bottom plateau, fixed range from −20-20%; Hill Slope: unconstrained. Potency data are reported as pIC50 or pIC90 values ±SD. IC90 values are defined from the fitted IC50 values: […]. FIG. 5A.
Exemplary compounds of the invention, compounds 1 and 2 were compared in this assay.

[1] = Log D (octanol / phosphate buffer pH 7.4); format: physicochemical; conditions: for logD at 1 h: octanol/potassium phosphate buffer, pH 7.4, octanol / potassium phosphate buffer pH 7.4
Experimental: 10 μL of 10 mM stock solutions was placed into a 96-well plate, and 300 μL of octanol was subsequently added. The plate was sealed and agitated on a plate shaker for 5 minutes, followed by centrifugation at 2000 rpm for 5 minutes. The seal was removed and 600 μL of potassium phosphate buffer (pH 7.4) was added. The plate was sealed and the two phases were mixed by shaking vigorously on a plate shaker for 1 hour at 25° C. The plate was then centrifuged for 2000 rpm for 5 minutes and the seal was removed. 10 μL of water was aspirated out of the water phase samples from the water phase plate and mixed with 10 μL of water (1:2 dilution). 180 μL of 50% Ethanol was added into the water phase sample plate (1:10 dilution) to achieve a 1:20 dilution. 50 μL of water phase samples were then mixed with 100 μL of 50% Ethanol (containing IS) into the water phase sample plate to achieve a 1:60 dilution. 10 μL from the octanol phase (the upper phase) was transferred into a new 96-well plate and 190 μL of 50% Ethanol was added (1:20 dilution). 10 μL of the 1:20 diluted octanol samples was transferred into a new 96 deep-well plate and 390 μL of 50% Ethanol (1:40 dilution) was added to achieve a 1:800 dilution. 50 μL of the 1:800 diluted octanol samples were transferred into a new 96-well plate and 100 μL of 50% Ethanol with IS was added to achieve a 1:2400 dilution. The samples were subsequently analyzed with LCMS.

Row | Compound | IC50 (IL-6 induced pSTAT3) [nM] | IC50 (IFNα/pSTAT5) [nM] | IC50 (IFNα/pSTAT5; Homo sapiens, CD4+ T) [nM] | LogD ([1]; octanol / potassium phosphate buffer pH 7.4) | logD at 1 h [1]
1 | C[C@@H](c1ccc(Nc2cc(Nc3ncccc3S(C)(=O)=O)ncn2)nc1)N1CC2(COC2)C1 [Compound 1, (S)—N^4-(5-(1-(2-oxa-6-azaspiro[3.3]heptan-6-yl)ethyl)pyridin-2-yl)-N^6-(3-(methylsulfonyl)pyridin-2-yl)pyrimidine-4,6-diamine] | > 10000 | 29.1 | ~15.8 | 1.33 | ~1.3
2 | C[C@@H](c1ccc(Nc2cc(Nc3ncc(F)cc3S(C)(=O)=O)ncn2)nc1)N1CC2(COC2)C1 [Compound 2, (S)—N^4-(5-(1-(2-oxa-6-azaspiro[3.3]heptan-6-yl)ethyl)pyridin-2-yl)-N^6-(5-fluoro-3-(methylsulfonyl)pyridin-2-yl)pyrimidine-4,6-diamine] | > 10000 | 15.8 | ~29 |  | ~1.6
